This experiment concerns mouse. Nature of the experiment: mouse hot plate test (analgesic activity). As to conditions: hot plate 52° C., 15 minutes after administration, latency to jump; for Analgesic Activity, Hot Plate Test ED50, mg./kg. subcutaneous: subcutaneous injection. It is filed as in vivo. On the procedure: In this test, a mouse is placed inside an upright acrylic cylinder comprising, as its base, a hot plate surface which is maintained at 52° C. The mouse is given, orally or by subcutaneous injection, a predetermined amount of test compound dissolved or suspended in a suitable carrier, and, 15 minutes after administration of the test compound, the mouse is placed on the hot plate surface. The latency in seconds until the mouse jumps from the hot plate surface is measure. […] This must occur in a dose range which produces no motor incoordination or incapacitation. The following Table records the ED50 results obtained from this test.
On the technique in general: Hot-plate and tail-flick tests time the reaction to a heat stimulus.

These results are taken from US4265808A, “Pharmacologically active peptides” (Eli Lilly and Company, priority 1979, dated 1981).

Structures are written as SMILES. Where a name gives a salt, the structure may show the parent alone. Where a SMILES comes first, the peptide text is derived from it. [ ]: non-standard residue; d: D form. NEtPhe(4-F) = CCN[C@@H](Cc1ccc(F)cc1)C(=O)O

Regarding `CCN(C(=O)CNC(=O)[C@@H](C)NC(=O)[C@@H](N)Cc1ccc(O)cc1)[C@@H](Cc1ccc(F)cc1)C(N)=O` [Example 1, L-Tyrosyl-D-alanyl-glycyl-L-(N-ethyl)-p-fluorophenylalanine Amide, Acetate Salt], the “Analgesic Activity, Hot Plate Test ED50, mg./kg. oral” value was 19 mg/kg and the “Analgesic Activity, Hot Plate Test ED50, mg./kg. subcutaneous” value (shortened to “Analgesic Activity … mg./kg. subcutaneous”) is 0.00018 mg/kg.

On to `CCN(C(=O)CNC(=O)[C@H](NC(=O)[C@@H](N)Cc1ccc(O)cc1)[C@H](C)O)[C@@H](Cc1ccc(F)cc1)C(N)=O` [Example 2, L-Tyrosyl-D-threonyl-glycyl-L-(N^α -ethyl)-p-fluorophenylalanine Amide, Acetate Salt] (H-Y[dT]G[NEtPhe(4-F)]-NH2), for which the “Analgesic Activity … mg./kg. subcutaneous” value came to 0.0121 mg/kg.

Turning to `CCN(C(=O)CNC(=O)[C@@H](C)NC(=O)[C@H](Cc1ccc(O)cc1)NC)[C@@H](Cc1ccc(F)cc1)C(N)=O` [Example 3, L-N^α -Methyl-tyrosyl-D-alanyl-glycyl-L-(N^α -Ethyl)-p-fluorophenylalanine Amide, Acetate Salt], the “Analgesic Activity, Hot Plate Test ED50, mg./kg. oral” value turned out to be 3.55 mg/kg and the “Analgesic Activity … mg./kg. subcutaneous” value is 0.0117 mg/kg.
